Laboratory results from ChEMBL document CHEMBL1201862, “PubChem BioAssay data set” (2004).
Each block holds one compound with its values, some of them ahead of it. Activity calls are given as the source filed them.

How the values were obtained:
[1] = target: Steroidogenic factor 1 (Homo sapiens, UniProt Q13285); assay: Counterscreen for inverse agonists of the liver receptor homolog-1 (LRH-1; NR5A2): Luminescence-based cell-based high throughput dose response assay to identify inverse agonists of the Steroidogenic Factor 1 Nuclear Receptor (SF1; NR5A1).; format: functional
Chain of Steroidogenic factor 1 (Q13285 whole entry): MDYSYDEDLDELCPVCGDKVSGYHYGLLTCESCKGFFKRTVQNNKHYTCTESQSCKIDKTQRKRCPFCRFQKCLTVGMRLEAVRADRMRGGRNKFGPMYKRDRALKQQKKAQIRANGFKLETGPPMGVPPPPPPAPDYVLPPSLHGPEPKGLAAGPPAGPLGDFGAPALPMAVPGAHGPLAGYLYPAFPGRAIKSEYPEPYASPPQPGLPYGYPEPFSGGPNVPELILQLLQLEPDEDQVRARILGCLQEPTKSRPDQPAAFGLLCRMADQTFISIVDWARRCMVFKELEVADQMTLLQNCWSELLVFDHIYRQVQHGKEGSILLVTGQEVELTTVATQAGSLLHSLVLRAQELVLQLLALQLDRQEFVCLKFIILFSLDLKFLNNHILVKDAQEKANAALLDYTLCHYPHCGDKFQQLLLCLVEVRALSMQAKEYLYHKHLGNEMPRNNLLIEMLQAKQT

[2] = target: Nuclear receptor subfamily 5 group A member 2 (Homo sapiens, UniProt O00482); format: functional, cell-based;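 note: HEK293T cells transfected with LRH-1 and a StAR promoter luciferase reporter; potency for inhibitors that lower LRH-1 driven reporter light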
Chain of Nuclear receptor subfamily 5 group A member 2 (O00482 whole entry): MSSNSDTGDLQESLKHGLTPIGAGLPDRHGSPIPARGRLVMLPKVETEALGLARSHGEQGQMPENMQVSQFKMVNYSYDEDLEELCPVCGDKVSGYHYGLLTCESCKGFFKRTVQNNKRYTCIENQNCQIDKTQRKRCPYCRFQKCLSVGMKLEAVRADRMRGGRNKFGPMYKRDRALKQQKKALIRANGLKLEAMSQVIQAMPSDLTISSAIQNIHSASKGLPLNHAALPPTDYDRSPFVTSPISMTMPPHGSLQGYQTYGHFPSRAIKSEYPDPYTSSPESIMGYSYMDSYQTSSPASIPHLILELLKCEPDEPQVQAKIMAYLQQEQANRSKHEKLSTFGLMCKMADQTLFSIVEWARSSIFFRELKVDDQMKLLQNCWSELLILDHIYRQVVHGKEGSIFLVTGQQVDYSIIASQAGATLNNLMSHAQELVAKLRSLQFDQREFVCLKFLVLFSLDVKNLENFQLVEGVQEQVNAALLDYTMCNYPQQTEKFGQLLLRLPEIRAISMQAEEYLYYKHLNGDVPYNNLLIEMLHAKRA

[3] = StAR promoter reporter inhibition counter-screen, dose response, counter-screen for LRH-1 inverse agonist project, cell-based, luminescence, luciferase reporter (AID 651969); format: functional
[4] = miR-122 activators in hepatoma reporter cells, dose response, cell-based, Huh7 psiCHECK-miR122, Renilla luciferase, cherry-picked (AID 651956); format: functional;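 note: huh7 hepatoma cells stably carrying a psiCHECK-2 miR-122 sensor plasmid; renilla luciferase signal reporting endogenous miR-122 activity after 48 h compound exposure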
[5] = target: T1, Sentrin-specific protease 8 (Homo sapiens, UniProt Q96LD8); format: functional
T1 sequence (Q96LD8 whole entry): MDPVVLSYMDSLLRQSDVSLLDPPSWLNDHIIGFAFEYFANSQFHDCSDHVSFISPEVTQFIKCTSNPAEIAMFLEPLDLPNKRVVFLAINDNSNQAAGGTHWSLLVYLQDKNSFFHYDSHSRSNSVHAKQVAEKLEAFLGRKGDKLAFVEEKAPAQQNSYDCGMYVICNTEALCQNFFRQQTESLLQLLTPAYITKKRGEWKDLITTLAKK

[6] = target: T2, Caspase-3 (Homo sapiens, UniProt P42574); assay: Dose-response confirmation of uHTS inhibitor hits of Sentrin-Specific Protease 8 in a Caspase-3 Fluorescence assay.; format: functional
T2 sequence (P42574 whole entry): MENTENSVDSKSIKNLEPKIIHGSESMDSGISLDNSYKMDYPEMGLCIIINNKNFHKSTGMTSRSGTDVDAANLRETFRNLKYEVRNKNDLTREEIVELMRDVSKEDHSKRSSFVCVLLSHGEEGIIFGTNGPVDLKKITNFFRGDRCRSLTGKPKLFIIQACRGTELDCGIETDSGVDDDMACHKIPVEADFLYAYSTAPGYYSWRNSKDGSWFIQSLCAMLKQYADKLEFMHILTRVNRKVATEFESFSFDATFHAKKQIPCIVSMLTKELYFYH

[7] = target: T1, Sentrin-specific protease 8; format: functional; remark: listed apart in the source
[8] = target: Photoreceptor-specific nuclear receptor (Homo sapiens, UniProt Q9Y5X4); format: functional, cell-based;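 note: CHO-S cells with Gal4-NCOR and VP16-NR2E3 two-hybrid luciferase reporter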
Chain of Photoreceptor-specific nuclear receptor (Q9Y5X4 whole entry, the tested form may be a part): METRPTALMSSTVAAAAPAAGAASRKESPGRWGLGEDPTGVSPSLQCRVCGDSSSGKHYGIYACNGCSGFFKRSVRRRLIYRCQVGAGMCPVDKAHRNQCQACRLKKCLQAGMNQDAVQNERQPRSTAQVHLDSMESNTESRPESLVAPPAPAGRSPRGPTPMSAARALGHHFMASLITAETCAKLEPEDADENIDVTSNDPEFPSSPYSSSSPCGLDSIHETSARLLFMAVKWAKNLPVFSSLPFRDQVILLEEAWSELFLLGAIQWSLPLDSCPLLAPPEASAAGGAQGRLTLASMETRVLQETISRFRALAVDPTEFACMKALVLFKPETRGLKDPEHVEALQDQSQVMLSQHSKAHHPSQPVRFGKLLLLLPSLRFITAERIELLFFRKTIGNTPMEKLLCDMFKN

[9] = target: T3, Apoptotic protease-activating factor 1 (Homo sapiens, UniProt O14727); assay: SAR analysis of small molecule Activators of Apaf-1 in a Fluorescent assay.; format: functional; conditions: read-out: EC50_Mean;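 note: caspase-3 cleavage of fluorogenic Rh110 DEVD substrate downstream of apoptosome activation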
T3 sequence (O14727 whole entry): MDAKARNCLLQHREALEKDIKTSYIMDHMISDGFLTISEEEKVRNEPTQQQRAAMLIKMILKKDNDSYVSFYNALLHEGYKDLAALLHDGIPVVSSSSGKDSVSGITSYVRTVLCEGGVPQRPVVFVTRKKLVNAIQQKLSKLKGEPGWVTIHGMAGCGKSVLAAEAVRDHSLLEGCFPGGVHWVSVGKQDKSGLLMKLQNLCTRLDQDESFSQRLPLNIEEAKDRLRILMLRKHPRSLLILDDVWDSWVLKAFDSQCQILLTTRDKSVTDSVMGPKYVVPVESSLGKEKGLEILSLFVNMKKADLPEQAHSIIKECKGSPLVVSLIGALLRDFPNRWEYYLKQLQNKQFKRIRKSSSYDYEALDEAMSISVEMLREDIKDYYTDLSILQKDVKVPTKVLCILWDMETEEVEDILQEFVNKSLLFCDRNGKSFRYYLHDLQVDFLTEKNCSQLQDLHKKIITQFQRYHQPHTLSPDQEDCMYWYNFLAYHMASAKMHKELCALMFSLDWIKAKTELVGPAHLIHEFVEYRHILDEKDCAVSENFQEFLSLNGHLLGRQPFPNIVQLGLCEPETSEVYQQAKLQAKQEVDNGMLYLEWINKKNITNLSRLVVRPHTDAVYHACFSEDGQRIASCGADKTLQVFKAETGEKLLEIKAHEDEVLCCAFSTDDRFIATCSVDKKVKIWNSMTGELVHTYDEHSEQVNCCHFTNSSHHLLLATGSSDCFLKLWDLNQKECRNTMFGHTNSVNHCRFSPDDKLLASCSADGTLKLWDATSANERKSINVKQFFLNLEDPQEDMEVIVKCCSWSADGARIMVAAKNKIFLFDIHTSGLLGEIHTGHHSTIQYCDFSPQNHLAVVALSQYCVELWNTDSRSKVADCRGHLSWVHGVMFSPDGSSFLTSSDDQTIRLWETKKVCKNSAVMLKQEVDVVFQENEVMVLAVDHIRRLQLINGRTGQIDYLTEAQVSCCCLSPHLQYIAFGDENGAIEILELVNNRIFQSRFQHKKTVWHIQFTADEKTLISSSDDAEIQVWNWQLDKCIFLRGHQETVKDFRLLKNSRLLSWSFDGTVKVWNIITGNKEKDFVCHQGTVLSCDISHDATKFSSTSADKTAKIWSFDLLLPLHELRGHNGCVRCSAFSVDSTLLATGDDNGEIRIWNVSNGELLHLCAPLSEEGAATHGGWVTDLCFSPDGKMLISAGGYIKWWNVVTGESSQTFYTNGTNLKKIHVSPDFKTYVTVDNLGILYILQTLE

[10] = lymphoblastoid cell cytotoxicity, dose response, cytotoxicity control, plate reader, dry powder, set 2 (AID 624367); format: functional
[11] = target: Paired box protein Pax-8 (Homo sapiens, UniProt Q06710); assay: inhibitors of PAX8-driven TPO luciferase reporter, dose response, RMG-I cells, cherry-pick (AID 687027); format: functional, cell-based;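 note: luciferase reporter driven by Pax8 target thyroperoxidase promoter measured by SteadyGlo luminescence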
Chain of Paired box protein Pax-8 (Q06710 whole entry): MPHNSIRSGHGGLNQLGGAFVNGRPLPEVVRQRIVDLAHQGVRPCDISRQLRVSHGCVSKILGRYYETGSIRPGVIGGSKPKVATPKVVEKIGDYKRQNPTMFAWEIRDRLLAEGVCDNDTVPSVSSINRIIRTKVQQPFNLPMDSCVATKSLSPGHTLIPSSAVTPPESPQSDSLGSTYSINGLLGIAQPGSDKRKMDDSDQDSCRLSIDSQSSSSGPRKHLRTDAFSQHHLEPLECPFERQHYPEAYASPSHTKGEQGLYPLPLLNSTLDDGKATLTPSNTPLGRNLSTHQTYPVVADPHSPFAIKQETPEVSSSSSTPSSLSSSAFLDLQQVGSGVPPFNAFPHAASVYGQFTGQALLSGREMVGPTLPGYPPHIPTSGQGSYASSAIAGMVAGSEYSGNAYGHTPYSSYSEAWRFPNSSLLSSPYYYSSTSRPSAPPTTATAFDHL

[12] = inhibitors of TNFa-stimulated NF-kB luciferase reporter, dose response, selectivity assay for EBV LMP1 NF-kB inhibitor project, HEK293 LMP1 reporter cells, dry powder, set 2 (AID 624369); format: functional
[13] = A2780 ovarian cancer cell cytotoxicity, dose response, cytotoxicity control, plate reader, dry powder samples (AID 743046); format: functional, cell-based

SMILES: COc1ccc(OCCNC(=O)C2(C)CCN2Cc2ccc3ccccc3c2)cc1 (stereo not drawn)
IC50 [1]: 6.42 µM (active)
IC50 [2]: 9.8 µM (active)
IC50 [3]: 35.9 µM (inactive)

SMILES: CCCC(NS(=O)(=O)c1ccc(Br)cc1)C(=O)O (stereo not drawn)
AC50 [4]: 1.68 µM (active)

IC50 [6]: 29.2 µM (active)
SMILES: COc1ccc2c(c1)Cc1sc(NC(=O)c3cccnc3)nc1-2
IC50 [5]: 7.97 µM (active)
IC50 [7]: 3.66 µM (active)

IC50 [8]: 11.7 µM (inactive)
SMILES: Cc1noc(C)c1S(=O)(=O)Nc1ccc(C(=O)N2CCN(c3ccc(Cl)cc3)CC2)cc1

EC50 [9]: > 100 µM (inactive)
SMILES: O=C(NCCCN1CCOCC1)C1CC(c2ccc(F)cc2)=NO1 (stereo not drawn)

SMILES: O=C(Nc1ccc(C(F)(F)F)cc1)Nc1ccc2c(c1)[C@H]1C[C@H](CC(=O)N3CCc4ccccc4C3)O[C@H](CO)[C@H]1O2
AbsAC35 [10]: 42.44 µM
AC50 [11]: 7.26 µM (active)
AbsAC35 [12]: 66.25 µM
AC50 [13]: 57.4 µM (active)
